pIC50: −log10 of the molar value.
Assays:
HRH2 = target: T1, HRH2 (Homo sapiens, UniProt P25021); test: Eurofins SAFETYscan 78-target panel, off-target effects, HRH2; assay type: biochemical; details: antagonist / blocker / inhibitor mode
T1 construct: Eurofins
Protocol: FIG. 9. Table summarizing the Eurofins analysis of potential off-target effects of M1i-124. […] values above 10 μM are generally considered to be acceptable. FIG. 10. Representative hematoxylin and eosin (H&E) staining of organ sections (lung, heart, kidney, liver and adrenal) from control and M1i-124 treated mice described in FIG. 6.
Studies were performed using the services of Touchstone Biosciences and Eurofins Pharma Discovery Services. […] All blood samples (30-50 ul per sample) were taken via tail vein at 5, 15, and 30 minutes, and 1, 2, 4, 6, 8, and 24 hours after dosing. Blood samples are collected in Greiner MiniCollect K2 EDTA tubes, placed on ice, and within 30 minutes, centrifuged at 15,000 g for 5 minutes to obtain plasma samples. All plasma samples are stored at −70° C. until analysis. Plasma samples were prepared for analysis by LC-MS/MS, and key PK parameters, including terminal half-life (t 112), initial plasma concentration (C0), area under the plasma concentration vs. time curve (AUC), volume of distribution at steady-state (Vss), total plasma clearance (CLp), and mean residence time (MRT), were measured.
Assay details are available through Eurofins.

[1] = system: PMA/iono-induced transcription of interleukin 2 (IL-2); test: IL-2 transcription in Jurkat T cells (quantitative RT-PCR); assay type: cell-based; details: compound at 1 μM
Protocol: The DLBCL cell lines, OCI-Ly1, OCI-Ly3, and OCI-Ly7, were provided by Dr. Mark Minden (University Health Network, Toronto, Ontario, Canada). TMD8 cells were provided by Dr. Louis Staudt (NCI, NIH). OCI-Ly1 and OCI-Ly7 cells were cultured in Iscove's Modified Dulbecco's Medium (IMDM) supplemented with 10% FBS. OCI-Ly3 cells were cultured in IMDM supplemented with 20% FBS. TMD8 and Jurkat T cells were cultured in RPMI1640 medium with 10% FBS. HEK293T cells were cultured in DMEM medium with 10% FBS. All media were supplemented with 100 U/ml penicillin streptomycin. Stimulation of Jurkat cells was conducted by adding 5 ng/ml of phorbol 12-myristatel3 acetate (PMA)(Sigma-Aldrich) and 1μM ionomycin (Calbiochem), or by adding 5-10 μL/mL of ImmunoCult Human CD3/CD28 ([…] Technologies).
Total RNA extraction was performed using RNeasy Plus Mini Kit (Qiagen Cat #74136). 1 ng RNA was transcribed into cDNA using High-Capacity cDNA Reverse Transcription Kit (Applied Biosystems Cat #4368814) according to manufacturer's instructions. RT-PCR reactions were performed using TaqMan gene expression probe sets.

OCI-Ly3 ABC-DLBCL cells = test: Cell proliferation (cell count, trypan blue exclusion), OCI-Ly3; assay type: cell-based; details: OCI-Ly3, single dose of 1 μM, 12 days
From the text: Cell number was counted using the trypan blue dye exclusion method with Vi-CELL cell viability analyzer (Beckman Coulter) at days 7, 10, and 12 of treatment with compounds. Cell proliferation was specifically evaluated using the CellTrace Violet reagent (ThermoFisher Cat #C34571) which undergoes dilution with each round of cell division. 1.5×10^6 cells were washed twice in PBS and resuspended in 2 mls of PBS.

BCL10-MALT1 interaction = target: T2, BCL10-MALT1 interaction (Homo sapiens, UniProt Q9UDY8); test: ELISA-based protein-protein interaction assay; assay type: binding; set-up: GST-tagged recombinant human full-length MALT1 protein (Novus Biologicals Cat #H00010892-P01); purchased Novus Biologicals H00010892-P01
T2 sequence (Q9UDY8 1-824): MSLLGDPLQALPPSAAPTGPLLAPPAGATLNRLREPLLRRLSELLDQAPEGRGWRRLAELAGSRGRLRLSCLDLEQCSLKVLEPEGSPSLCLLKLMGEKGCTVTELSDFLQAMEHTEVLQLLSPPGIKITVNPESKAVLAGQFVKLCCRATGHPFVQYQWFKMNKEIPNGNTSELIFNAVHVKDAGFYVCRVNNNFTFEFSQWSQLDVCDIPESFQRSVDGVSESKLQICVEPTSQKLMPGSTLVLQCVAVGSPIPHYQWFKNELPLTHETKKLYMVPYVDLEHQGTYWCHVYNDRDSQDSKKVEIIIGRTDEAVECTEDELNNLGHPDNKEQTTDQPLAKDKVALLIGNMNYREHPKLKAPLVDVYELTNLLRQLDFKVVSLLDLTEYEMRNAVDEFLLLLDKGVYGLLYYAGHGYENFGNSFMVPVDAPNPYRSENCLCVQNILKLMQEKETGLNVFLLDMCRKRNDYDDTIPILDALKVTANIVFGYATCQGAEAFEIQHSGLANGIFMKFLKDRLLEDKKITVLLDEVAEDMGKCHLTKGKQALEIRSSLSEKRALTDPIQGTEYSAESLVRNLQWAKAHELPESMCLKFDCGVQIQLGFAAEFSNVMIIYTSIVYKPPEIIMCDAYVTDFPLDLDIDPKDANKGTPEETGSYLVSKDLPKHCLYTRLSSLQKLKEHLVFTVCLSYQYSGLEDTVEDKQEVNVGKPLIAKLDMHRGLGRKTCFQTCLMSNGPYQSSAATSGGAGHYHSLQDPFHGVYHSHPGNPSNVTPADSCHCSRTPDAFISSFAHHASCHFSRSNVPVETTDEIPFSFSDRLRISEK
Protocol: On a high-binding 96-well ELISA microplate (Greiner Cat #655061), 100 ng of His-tagged recombinant human full-length Bcl10 protein (ProteinTech Cat #Ag12162) in 100 ul PBS was allowed to adhere overnight in 4° C. The plate was blocked with 5% BSA in PBS for 1 hour at room temperature. After washing twice with PBS-T, a mixture of 100 ng of GST-tagged recombinant human full-length MALT1 protein (Novus Biologicals Cat #H00010892-P01), +/−compound that was preincubated for 1 hour in 100 ul PBS, was added to the plate for 1 hour at room temperature. After washing three times with PBS-T, anti-MALT1 antibody in 5% BSA in PBS was added at 1:1000 dilution for 1 hour at room temperature. After washing three times with PBS-T, HRP-conjugated secondary antibody in 5% BSA in PBS was added at 1:5000 dilution for 1 hour at room temperature. After washing three times with PBS-T, 100 ul of TMB was added for 5 minutes, and 100 ul of 2 M sulfuric acid was added to stop the reaction. The plate was read at 450 nm using a spectrophotometer (Molecular Devices SpectraMax i3).

T1 sequence (P25021 whole entry): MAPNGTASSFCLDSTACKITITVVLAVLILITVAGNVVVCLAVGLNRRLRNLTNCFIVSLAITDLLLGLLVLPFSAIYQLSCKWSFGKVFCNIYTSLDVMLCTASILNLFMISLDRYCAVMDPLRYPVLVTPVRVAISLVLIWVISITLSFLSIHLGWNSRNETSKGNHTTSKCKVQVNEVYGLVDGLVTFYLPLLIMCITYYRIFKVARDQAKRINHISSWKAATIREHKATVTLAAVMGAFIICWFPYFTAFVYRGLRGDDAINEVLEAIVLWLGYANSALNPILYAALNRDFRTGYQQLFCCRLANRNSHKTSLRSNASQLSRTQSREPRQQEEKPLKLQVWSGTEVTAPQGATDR

O=S(=O)(NCc1ccc2c(c1)OCO2)c1ccc(Cc2ccc(S(=O)(=O)NCc3ccc4c(c3)OCO4)cc2)cc1 [M1i-124]
pIC50 (HRH2): 5.64

COc1ccc(CNS(=O)(=O)c2ccc(Cc3ccc(S(=O)(=O)NCc4ccc(OC)cc4)cc3)cc2)cc1 [M1i-124d1]
Transcription of interleukin 2 (IL-2) [1]: inhibit
Proliferation (OCI-Ly3 ABC-DLBCL cells): inhibit the proliferation
ELISA IC50 compared with parent compound M1i-124 (BCL10-MALT1 interaction): lower IC50 as compared to parent compound
Disruption of the BCL10-MALT1 interaction by ELISA in the presence of tween (BCL10-MALT1 interaction; 0.005% tween): retain the ability to disrupt the BCL10-MALT1 interaction
